# Source: ChEMBL document CHEMBL1152256, “Synthesis of Arabino glycosyl triazoles as potential inhibitors of mycobacterial cell wall biosynthesis” (2008)
# Activity calls are given as the source filed them. No cut-off for these calls is given here.
# Test system: Escherichia coli
# Test: Antibacterial activity against Escherichia coli JM109 at 1 mg/mL
# Format: functional, organism-based
row,SMILES,Activity
1,OC[C@H]1O[C@@H](n2cc(-c3ccccc3)nn2)[C@@H](O)[C@@H]1O,inactive
2,CCCCCCCCc1cn([C@@H]2O[C@H](CO)[C@@H](O)[C@@H]2O)nn1,inactive
3,CCCCCCCCCCCCCCOCc1cn([C@@H]2O[C@H](CO)[C@@H](O)[C@@H]2O)nn1,inactive
4,CCCCCCc1cn([C@@H]2O[C@H](CO)[C@@H](O)[C@@H]2O)nn1,inactive
5,CCCCCCCCCCc1cn([C@@H]2O[C@H](CO)[C@@H](O)[C@@H]2O)nn1,inactive
6,CC(C)=CCC/C(C)=C/CC/C(C)=C/COCc1cn([C@@H]2O[C@H](CO)[C@@H](O)[C@@H]2O)nn1,inactive
